According to PubChem BioAssay AID248 (DTP/NCI, 2004):
Where “and” joins values, the source holds several entries; their conditions need not be identical. Identical values can stand only once. Toxic doses and inconclusive results are not listed. Rule as the data show it: active = T/C of 150% or more; inactive = T/C below 125%.

System: L1210 leukemia ip in BDF1 mice, survival T/C
Assay: NCI In Vivo Anticancer Drug Screen. Data for tumor model L1210 Leukemia (intraperitoneal) in B6D2F1 (BDF1) mice
Conditions: endpoint: mean survival time, higher = longer survival
In short: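 Each compound was tested against a transplantable tumor grown in mice. The endpoint was survival, with treated animals benchmarked against vehicle controls as a simple ratio.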

[1] = dose: 100.0 mg/kg/injection, schedule: Q01DX001 (ip), vehicle: saline
[2] = dose: 200.0 mg/kg/injection, schedule: Q01DX001 (ip), vehicle: saline
[3] = dose: 400.0 mg/kg/injection, schedule: Q01DX001 (ip), vehicle: saline
[4] = dose: 100.0 mg/kg/injection, schedule: Q01DX009 (ip), vehicle: Klucel (hydroxypropylcellulose) (HPC)
[5] = dose: 200.0 mg/kg/injection, schedule: Q01DX009 (ip), vehicle: Klucel (hydroxypropylcellulose) (HPC)
[6] = dose: 50.0 mg/kg/injection, schedule: Q01DX009 (ip), vehicle: Klucel (hydroxypropylcellulose) (HPC)
[7] = dose: 100.0 mg/kg/injection, schedule: Q01DX001 (ip), vehicle: carboxymethylcellulose (CMC)
[8] = dose: 200.0 mg/kg/injection, schedule: Q01DX001 (ip), vehicle: carboxymethylcellulose (CMC)
[9] = dose: 25.0 mg/kg/injection, schedule: Q04DX003 (ip), vehicle: saline
[10] = dose: 50.0 mg/kg/injection, schedule: Q04DX003 (ip), vehicle: saline
[11] = dose: 100.0 mg/kg/injection, schedule: Q04DX003 (ip), vehicle: saline with Tween-80
[12] = dose: 200.0 mg/kg/injection, schedule: Q04DX003 (ip), vehicle: saline with Tween-80

Measured: T/C

BrCc1nc2ccccc2[nH]1
inactive: [1] 95 % of control | [2] 101 % of control | [3] 107 % of control

Cc1cccc([P+](Cc2ccccc2)(c2cccc(C)c2)c2cccc(C)c2)c1
inactive: dose: 15.0 mg/kg/injection, schedule: Q01DX001 (ip), vehicle: carboxymethylcellulose (CMC) 90 % of control

CC(C(=O)O)C(NC(=O)OCc1ccccc1)C(=O)O (configuration not stated)
inactive: dose: 100.0 mg/kg/injection, schedule: Q01DX009 (ip), vehicle: other 93 % of control | dose: 100.0 mg/kg/injection, schedule: Q04DX003 (ip), vehicle: other 99 % of control | dose: 200.0 mg/kg/injection, schedule: Q01DX009 (ip), vehicle: other 91 % of control | dose: 200.0 mg/kg/injection, schedule: Q04DX003 (ip), vehicle: other 99 % of control | dose: 400.0 mg/kg/injection, schedule: Q01DX009 (ip), vehicle: other 98 % of control | dose: 400.0 mg/kg/injection, schedule: Q04DX003 (ip), vehicle: other 98 % of control

CCO/C=N/NC(=O)CNC(=O)C=[N+]=[N-]
inactive: dose: 180.0 mg/kg/injection, schedule: Q01DX001 (ip), vehicle: water 100 % of control and 116 % of control | dose: 270.0 mg/kg/injection, schedule: Q01DX001 (ip), vehicle: water 101 % of control and 117 % of control | dose: 400.0 mg/kg/injection, schedule: Q01DX001 (ip), vehicle: water 105 % of control and 117 % of control | dose: 600.0 mg/kg/injection, schedule: Q01DX001 (ip), vehicle: water 106 % of control and 111 % of control

CNc1ccc(C(=O)NC(CCC(=O)O)C(=O)O)cc1C(F)(F)F (configuration not stated)
inactive: [4] 98 % of control | [5] 96 % of control | dose: 400.0 mg/kg/injection, schedule: Q01DX009 (ip), vehicle: Klucel (hydroxypropylcellulose) (HPC) 98 % of control

CN(NC(=O)OCc1ccccc1)C(=O)OCc1ccccc1
inactive: dose: 12.5 mg/kg/injection, schedule: Q01DX009 (ip), vehicle: Klucel (hydroxypropylcellulose) (HPC) 98 % of control | dose: 12.5 mg/kg/injection, schedule: Q04DX003 (ip), vehicle: Klucel (hydroxypropylcellulose) (HPC) 93 % of control | dose: 25.0 mg/kg/injection, schedule: Q01DX009 (ip), vehicle: Klucel (hydroxypropylcellulose) (HPC) 93 % of control | dose: 25.0 mg/kg/injection, schedule: Q04DX003 (ip), vehicle: Klucel (hydroxypropylcellulose) (HPC) 103 % of control | [6] 108 % of control | dose: 50.0 mg/kg/injection, schedule: Q04DX003 (ip), vehicle: Klucel (hydroxypropylcellulose) (HPC) 112 % of control | [4] 90 % of control | dose: 100.0 mg/kg/injection, schedule: Q04DX003 (ip), vehicle: Klucel (hydroxypropylcellulose) (HPC) 89 % of control | [5] 90 % of control | dose: 200.0 mg/kg/injection, schedule: Q04DX003 (ip), vehicle: Klucel (hydroxypropylcellulose) (HPC) 106 % of control | dose: 400.0 mg/kg/injection, schedule: Q04DX003 (ip), vehicle: Klucel (hydroxypropylcellulose) (HPC) 110 % of control

CN(C)S(=O)(=O)c1ccc(CCCCCCc2ccc(S(=O)(=O)N(C)C)cc2)cc1
inactive: [7] 96 % of control | [8] 102 % of control | dose: 400.0 mg/kg/injection, schedule: Q01DX001 (ip), vehicle: carboxymethylcellulose (CMC) 91 % of control

COc1cc(C=Nc2ccc(Cl)cc2)ccc1N(CCCl)CCCl
inactive: dose: 21.0 mg/kg/injection, schedule: Q01DX015 (ip), vehicle: carboxymethylcellulose (CMC) 110 % of control | dose: 36.0 mg/kg/injection, schedule: Q01DX015 (ip), vehicle: carboxymethylcellulose (CMC) 95 % of control | dose: 50.0 mg/kg/injection, schedule: Q01DX001 (ip), vehicle: carboxymethylcellulose (CMC) 120 % of control | [7] 108 % of control | dose: 133.0 mg/kg/injection, schedule: Q01DX001 (ip), vehicle: carboxymethylcellulose (CMC) 107 % of control | [8] 117 % of control

CC(=O)NCCOc1ccc([N+](=O)[O-])cc1Cl
inactive: dose: 100.0 mg/kg/injection, schedule: Q01DX001 (ip), vehicle: Klucel (hydroxypropylcellulose) (HPC) 100 % of control | dose: 200.0 mg/kg/injection, schedule: Q01DX001 (ip), vehicle: Klucel (hydroxypropylcellulose) (HPC) 110 % of control

CSc1nc([N+](C)(C)C)cc([N+](C)(C)C)n1
inactive: dose: 6.0 mg/kg/injection, schedule: Q01DX Z (ip), vehicle: saline 91 % of control

CCCCN(CCCC)CCN(CCCC)CCN(CCCC)CCCC
inactive: [9] 103 % of control | [10] 98 % of control | dose: 100.0 mg/kg/injection, schedule: Q04DX003 (ip), vehicle: saline 98 % of control and 89 % of control

O=C(O)c1cccc(CCc2cccnc2)c1
inactive: dose: 100.0 mg/kg/injection, schedule: Q01DX001 (ip), vehicle: saline with Tween-80 98 % of control | dose: 200.0 mg/kg/injection, schedule: Q01DX001 (ip), vehicle: saline with Tween-80 101 % of control | dose: 400.0 mg/kg/injection, schedule: Q01DX001 (ip), vehicle: saline with Tween-80 93 % of control

CCCCOC(=O)CSSCC(=O)OCCCC
inactive: [11] 106 % of control | [12] 109 % of control

N#Cc1nc2c(n(O)c1=N)CCC/C2=C\c1ccccc1
inactive: [6] 103 % of control | [4] 103 % of control | [5] 93 % of control

C(=P(c1ccccc1)(c1ccccc1)c1ccccc1)[P+](c1ccccc1)(c1ccccc1)c1ccccc1.[Cl][Fe]([Cl])([Cl])[Br]
inactive: dose: 0.39 mg/kg/injection, schedule: Q01DX009 (ip), vehicle: Klucel (hydroxypropylcellulose) (HPC) 119 % of control | dose: 0.78 mg/kg/injection, schedule: Q01DX009 (ip), vehicle: Klucel (hydroxypropylcellulose) (HPC) 112 % of control | dose: 1.56 mg/kg/injection, schedule: Q01DX009 (ip), vehicle: Klucel (hydroxypropylcellulose) (HPC) 97 % of control and 102 % of control

O=C(O)C1=C(C(=O)O)C2CCC1C2
inactive: [11] 100 % of control | [12] 88 % of control

CCN(CC)Cc1ccccc1COC(=O)c1ccc(Cl)cc1
inactive: dose: 100.0 mg/kg/injection, schedule: Q04DX002 (ip), vehicle: Klucel (hydroxypropylcellulose) (HPC) 96 % of control | dose: 200.0 mg/kg/injection, schedule: Q04DX002 (ip), vehicle: Klucel (hydroxypropylcellulose) (HPC) 101 % of control | dose: 400.0 mg/kg/injection, schedule: Q04DX002 (ip), vehicle: Klucel (hydroxypropylcellulose) (HPC) 88 % of control

O=C1CCCC(=O)c2c(O)ccc(O)c21
inactive: [1] 96 % of control | [2] 98 % of control | [3] 96 % of control

CC(Cc1ccccc1)N(C)C (configuration not stated)
inactive: dose: 12.5 mg/kg/injection, schedule: Q01DX001 (ip), vehicle: saline 102 % of control | dose: 25.0 mg/kg/injection, schedule: Q01DX001 (ip), vehicle: saline 94 % of control | [9] 101 % of control | dose: 50.0 mg/kg/injection, schedule: Q01DX001 (ip), vehicle: saline 94 % of control | [10] 101 % of control
